Results as given in article PMC10706087, “The Subtype Selectivity in Search of Potent Hypotensive Agents among 5,5-Dimethylhydantoin Derived α1-Adrenoceptors Antagonists” (International Journal of Molecular Sciences, 2023).
Where a name gives a salt, the structure may show the parent alone.

Assays:
[1] = molecular target: α1-adrenoceptors (α1-ARs), rat cerebral cortex; assay: Radioligand binding assay with [3H]-prazosin, affinity for α1-ARs; details: three independent experiments in duplicates, read-out: α1-adrenoceptor affinity Ki
Method: In the first step, all synthesized compounds (1–15) were tested in vitro for their affinity for α1-ARs on rat cerebral cortex by the radioligand binding assay using [^3H]-prazosin as a specific radioligand.
The affinity for α1-ARs was determined by radioligand binding assay on rat cerebral cortex using [3H]-prazosin as a specific radioligand. The brains were homogenized in 20 volumes of an ice-cold 50 mM Tris-HCl buffer (pH 7.6) and were centrifuged (MPW Med. Instruments, Warsaw, Poland) at 20,000× g for 20 min (0–4 °C). The cell pellet was resuspended in the Tris-HCl buffer and centrifuged again. Radioligand-binding assay was performed in plates (MultiScreen/Millipore, Burlington, MA, USA). The final incubation mixture (final volume 300 μL) consisted of 240 μL of the membrane suspension, 30 μL of [3H]-Prazosin (0.2 nM) solution, and 30 μL of the buffer containing seven to eight concentrations (10^−11 to 10^−4 M) of the tested compounds. For measuring the unspecific binding, phentolamine, 10 μM (in the case of [3H]-Prazosin) was applied. The incubation was terminated by rapid filtration over glass fiber filters (Whatman GF/C, Sigma-Aldrich) using a vacuum manifold (Millipore). The filters were then washed twice with the assay buffer and placed in scintillation vials with a liquid-scintillation cocktail. Radioactivity was measured in a WALLAC 1409 DSA liquid-scintillation counter (BioSurplus, San Diego, CA, USA).
(§1) All statistics were performed using GraphPad Prism, Version 6.0 (GraphPad Software, San Diego, CA, USA). In the radioligand binding study, data were analyzed by a one-site curve-fitting equation, and inhibition constants (Ki) values were calculated via the Cheng-Prusoff equation [63]. In functional studies, data were analyzed using a sigmoidal dose-response (variable slope) equation. Arterial blood pressure data were analyzed using a two-way ANOVA with Sidak’s post-hoc test for multiple comparisons. A p < 0.05 was considered statistically significant.

[2] = molecular target: T1, human adrenergic receptor α1A (Homo sapiens, UniProt P35348); assay: Intrinsic activity, aequorin luminescence functional assay at α1A-AR; format: cell-based; details: for α1A-AR Profile: agonist/antagonist profile; for IC50: cells expressing aequorin and human α1A, against phenylephrine, means of three independent experiments in duplicates; for Selectivity Ratio α1B/α1A: selectivity for α1A-AR (IC50(α1B-AR)/IC50(α1A-AR))
T1 sequence (P35348 1-466): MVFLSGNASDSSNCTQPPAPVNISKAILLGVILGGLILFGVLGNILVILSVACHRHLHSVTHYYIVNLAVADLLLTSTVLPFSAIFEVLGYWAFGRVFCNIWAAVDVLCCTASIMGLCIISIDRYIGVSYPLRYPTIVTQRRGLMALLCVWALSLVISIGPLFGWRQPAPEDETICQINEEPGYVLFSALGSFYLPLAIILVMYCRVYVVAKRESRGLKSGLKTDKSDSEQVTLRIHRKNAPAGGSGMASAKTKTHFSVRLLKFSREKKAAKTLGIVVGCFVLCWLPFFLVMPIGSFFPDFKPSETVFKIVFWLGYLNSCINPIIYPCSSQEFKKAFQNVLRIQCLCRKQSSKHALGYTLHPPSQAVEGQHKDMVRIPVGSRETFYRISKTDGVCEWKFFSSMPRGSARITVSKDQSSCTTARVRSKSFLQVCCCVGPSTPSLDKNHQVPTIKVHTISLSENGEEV
Method: (§2) The subtype selectivity for α1A and α1B was calculated as IC50(α1B-AR)/IC50(α1A-AR) and IC50(α1A-AR)/IC50(α1B-AR) ratio, respectively.
(§3) Intrinsic activity at the α1-AR subtypes studies were performed using the cells expressing mitochondrially-targeted aequorin and one of the human adrenergic receptor α1A or α1B (PerkinElmer, Boston, MA, USA), according to the manufacturer’s instructions. For measurement, frozen cells were thawed and re-suspended in 10 mL of assay buffer containing 5 μM “Coelenterazine h”. This cell suspension was put in a 10 mL Falcon tube, fixed onto a rotating heel, and incubated overnight at rt in the dark (8 rpm; 45° angle). Cells were diluted with Assay Buffer to 5000 cells/20 μL. […] The light emitted was recorded for 20 s. Cells with antagonists were incubated for 15 min at room temperature. […] Luminescence was measured using the multidetection microplate reader (POLARstar Omega, BMG LABTECH, Ortenberg, Germany).
as §1

[3] = tested on: arterial blood pressure of normotensive Wistar rats; assay: Influence on blood pressure in normotensive anesthetized rats after i.v. administration; format: in vivo, rat; details: 2.0 mg/kg i.v., mean, n = 6
Method: In the next step, the hypotensive activity of novel compounds 1–3, 5–9, and 11–14 was determined after i.v. administration to normotensive anesthetized rats. All results are shown in Supplementary Table S1.
The normotensive rats were anesthetized with thiopental (75 mg/kg) by intraperitoneal injection (i.p.). The left carotid artery was cannulated with a polyethylene tub filled with heparin in saline to facilitate pressure measurements using a PowerLab Apparatus (ADInstruments, Sydney, Australia). Blood pressure was measured immediately before administration of the tested compounds or vehicle—time 0 min (initial blood pressure) and 60 min thereafter. Initial blood pressure before administration of the tested chemicals in all experimental groups was similar. The tested compounds were dissolved in a specific vehicle: ethyl alcohol 5% − kolliphor 5% − water 90%. All tested chemicals were administrated intravenously (i.v.) at a constant volume of 1 mL/kg after 20 min of stabilization period. The compounds were tested at a starting dose of 2 mg/kg. If the hypotensive activity was found, the dose was reduced by half. The dosing was continued until the hypotensive effects disappeared. Urapidil was used as a reference compound.
as §1

[4] = molecular target: T2, human adrenergic receptor α1B (Homo sapiens, UniProt P35368); assay: Intrinsic activity, aequorin luminescence functional assay at α1B-AR; format: cell-based; details: for α1B-AR Profile: agonist/antagonist profile; for IC50: cells expressing aequorin and human α1B, against phenylephrine, means of three independent experiments in duplicates; for Selectivity Ratio α1A/α1B: selectivity for α1B-AR (IC50(α1A-AR)/IC50(α1B-AR))
T2 sequence (P35368 1-520): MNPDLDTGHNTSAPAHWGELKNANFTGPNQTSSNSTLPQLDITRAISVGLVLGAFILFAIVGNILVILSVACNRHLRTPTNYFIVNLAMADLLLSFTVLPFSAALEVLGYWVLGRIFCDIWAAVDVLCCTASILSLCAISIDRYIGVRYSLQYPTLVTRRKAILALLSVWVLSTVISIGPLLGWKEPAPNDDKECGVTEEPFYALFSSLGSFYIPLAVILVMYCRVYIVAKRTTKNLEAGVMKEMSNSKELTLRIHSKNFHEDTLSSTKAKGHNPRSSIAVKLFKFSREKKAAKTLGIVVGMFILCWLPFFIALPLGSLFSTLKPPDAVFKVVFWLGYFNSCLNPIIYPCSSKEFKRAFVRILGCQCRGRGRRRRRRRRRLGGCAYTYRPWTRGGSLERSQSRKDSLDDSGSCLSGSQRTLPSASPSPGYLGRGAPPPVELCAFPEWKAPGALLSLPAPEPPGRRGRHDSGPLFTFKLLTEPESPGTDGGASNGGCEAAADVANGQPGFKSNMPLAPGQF
Method: as §2, §3, §1

[5] = 0 min (initial, before administration)

Compound	Ki [1] [nM]	α1A-AR Profile [2]	IC50 [2] [nM]	Selectivity Ratio α1B/α1A [2]	Diastolic blood pressure [3, 5]	Systolic blood pressure [3, 5]	Diastolic blood pressure ([3]; 5 min)	Systolic blood pressure ([3]; 5 min)	Diastolic blood pressure ([3]; 10 min)	Systolic blood pressure ([3]; 10 min)	Diastolic blood pressure ([3]; 20 min)	Systolic blood pressure ([3]; 20 min)	Diastolic blood pressure ([3]; 30 min)	Systolic blood pressure ([3]; 30 min)	Diastolic blood pressure ([3]; 40 min)	Systolic blood pressure ([3]; 40 min)	Diastolic blood pressure ([3]; 50 min)	Systolic blood pressure ([3]; 50 min)	α1B-AR Profile [4]	IC50 [4] [nM]	other results
CC1(C)C(=O)N(Cc2ccc(Cl)cc2Cl)C(=O)N1CC(O)CN1CCN(c2ccc(Cl)c(Cl)c2)CC1.Cl (stereo not drawn) [Compound 10, 3-(2,4-dichlorobenzyl)-1-(3-(4-(3,4-dichlorophenyl)piperazin-1-yl)-2-hydroxypropyl)-5,5-dimethylimidazolidine-2,4-dione hydrochloride]	778	–	–	–	–	–	–	–	–	–	–	–	–	–	–	–	–	–	–	–	melting point: 223 to 225 °C
CC1(C)C(=O)N(Cc2ccc(Cl)cc2Cl)C(=O)N1CC(O)CN1CCN(c2ccc(F)cc2)CC1 (stereo not drawn) [Compound 8]	44	Antagonist	817	0.21	96.7	129.2	87.8	121.5	89.0	120.5	88.2	120.0	86.5	120.2	84.7	119.5	85.5	120.0	Antagonist	170	Diastolic blood pressure ([3]; 60 min): 84.3; Systolic blood pressure ([3]; 60 min): 119.0; Selectivity Ratio α1A/α1B [4]: 4.79
CCOc1ccccc1OCCN[C@H](C)Cc1ccc(OC)c(S(N)(=O)=O)c1 [Tamsulosin, tamsulosin hydrochloride, reference compound]	–	Antagonist	–	–	–	–	–	–	–	–	–	–	–	–	–	–	–	–	Antagonist	0.48	–
COc1cc2nc(N3CCN(C(=O)C4CCCO4)CC3)nc(N)c2cc1OC (stereo not drawn) [Terazosin, terazosin hydrochloride, reference compound]	–	Antagonist	–	–	–	–	–	–	–	–	–	–	–	–	–	–	–	–	Antagonist	–	–
CC1(C)C(=O)N(Cc2ccc(Cl)cc2Cl)C(=O)N1CCCCCCN1CCN(c2ccc(Cl)c(Cl)c2)CC1.Cl [Compound 4, 3-(2,4-dichlorobenzyl)-1-(6-(4-(3,4-dichlorophenyl)piperazin-1-yl)hexyl)-5,5-dimethylimidazolidine-2,4-dione hydrochloride]	255	–	–	–	–	–	–	–	–	–	–	–	–	–	–	–	–	–	–	–	melting point: 154 to 156 °C
CNC[C@H](O)c1cccc(O)c1 [Phenylephrine, phenylephrine, reference compound]	–	Agonist	–	–	–	–	–	–	–	–	–	–	–	–	–	–	–	–	Agonist	–	–
CC1(C)C(=O)N(Cc2ccc(Cl)cc2Cl)C(=O)N1CC(O)CN1CCN(C(c2ccccc2)c2ccccc2)CC1 (stereo not drawn) [Compound 15]	2440	–	–	–	–	–	–	–	–	–	–	–	–	–	–	–	–	–	–	–	–
CC1(C)C(=O)N(Cc2ccc(Cl)cc2Cl)C(=O)N1CC(O)CN1CCN(c2ccccc2F)CC1 (stereo not drawn) [Compound 7]	100	Antagonist	1410	0.34	103.2	137.8	91.5	125.3	91.0	124.3	93.0	121.8	92.0	123.8	94.3	123.7	93.2	122.7	Antagonist	484	Diastolic blood pressure ([3]; 60 min): 91.3; Systolic blood pressure ([3]; 60 min): 121.5; Selectivity Ratio α1A/α1B [4]: 2.92
CC1(C)C(=O)N(Cc2ccc(Cl)cc2Cl)C(=O)N1CC(O)CN1CCN(c2ccc(F)cc2F)CC1 (stereo not drawn) [Compound 9]	42	Antagonist	162	0.91	100.3	135.2	98.2	133.3	93.5	127.0	90.8	125.0	93.2	128.2	92.0	128.2	90.3	127.2	Antagonist	147	Diastolic blood pressure ([3]; 60 min): 87.3; Systolic blood pressure ([3]; 60 min): 122.0; Selectivity Ratio α1A/α1B [4]: 1.10
